Experimental data from patent US5444056A, “Aminoalkoxyphenyl derivatives, process for their preparation and compositions containing them” (Sanofi, priority 1989, dated 1995).
Where a name gives a salt, the structure may show the parent alone.

Key:
[1] = system: acceleration of the heart rate induced by isoprenaline (anti-β effect); assay: Anti-β effect: reduction of isoprenaline-induced acceleration of the heart rate in anesthetized atropinized dog; type: in vivo; parameters: key to Anti-β effect: +: for a reduction <50%; ++: for a reduction ≥50%; +++: for an almost complete reduction
Procedure: The aim of this test is to determine the capacity of the compounds of the invention to reduce the increase in blood pressure induced by epinephrine (anti-αeffect) and the acceleration of the heart rate induced by isoprenaline (anti-βeffect) in the dog previously anesthetized with pentobarbital and atropinized.
(§1) First, are determined for each dog the dose of epinephrine (between 3 and 10 μg/kg) which causes a reproducible increase in arterial blood pressure of about 133.10^2 Pa and the dose of isoprenaline (1 to 2 μg/kg) which causes a reproducible increase in the heart rate of about 70 beats/minute. The doses of epinephrine and isoprenaline thus determined are injected alternatively every ten minutes and after the two consecutive reference responses have been obtained, a quantity of the test compound is administered by the intravenous route.
The percentage reduction of the acceleration of the heart rate caused by the test compound compared with the reference tachycardia previously measured (about 70 beats) is recorded.
In both cases, the results of the reduction in arterial pressure and heart rate are expressed as follows: […]

[2] = system: contractile response to potassium-induced depolarization on isolated rat aorta; assay: Calcium inhibitory properties: antagonism of contractile response to potassium-induced depolarization on isolated rat aorta; parameters: species or system rat (male Wistar); settings: percent of maximal contraction before incubation, 60 min
From the text: It is well established that the depolarization of a smooth muscle membrane by potassium makes the latter permeable to extracellular calcium and induces muscle contraction. Consequently, the measurement of inhibition of the contractile response to depolarization by potassium or the measurement of relaxation of the tonic contraction on potassium depolarization can provide an evaluation of the potency of a compound as an inhibitor of the membrane permeability to Ca^++ ions. The technique used is the following: The aorta is removed from male Wistar rats weighing about 300 g and cut into strips approximately 40 mm long and 3 mm wide. These fragments are placed in a 25 ml isolated organ bath containing modified Krebs-bicarbonate solution (112 mM NaCL; 5 mM KCl; 25 mM NaHCO3; 1 mM KH2 PO4; 1.2 mM MgSO4; 2.5 mM CaCl2; 11.5 mM glucose, made up to 1000 ml with distilled water) maintained at 37° C. and through which a stream of carbon dioxide is passed. The preparation is connected to a force microsensor and the contractile response is recorded after amplification on a recorder. A tension of 2g is applied to the preparation. This latter is maintained in the modified Krebs-bicarbonate solution for 60 minutes, and then contractions are induced by replacing the Krebsbi-carbonate solution by a Krebs-potassium solution (17 mM NaCl; 100 mM KCl; 25 mM NaHCO3; 1 mM KH2 PO4; 1.2 mM MgSO4; 2.5 mM CaCl2; 11.5 mM glucose; made up to 1000 ml with distilled water). When the contractile response of the preparation has become reproducible, a given amount of the compound of the invention is introduced into the bath. Sixty minutes later a new spasm is induced by potassium depolarization. The results obtained on the aorta under investigation are then expressed in percent of the maximal contractional effect before incubation with the test substance. As examples, the following results were obtained, the compounds of formula (1) being in the form of the free base, the hydrochloride, oxalate or fumarate.

[3] = system: increase in blood pressure induced by epinephrine (anti-α effect); assay: Anti-α effect: reduction of epinephrine-induced increase in blood pressure in anesthetized atropinized dog; type: in vivo; parameters: key: +: for a reduction <50%; ++: for a reduction ≥50%; +++: for an almost complete reduction
Procedure: as §1, with “The aim of this test is to determine the capacity of the compounds of the invention to reduce the increase in blood pressure induced by epinephrine (anti-αeffect) and the acceleration of the heart rate induced by isoprenaline (anti-βeffect) in the dog previously anesthetized with pentobarbital and atropinized. First,” for “First,”, “route. The percentage reduction of the hypertension caused by the test compound in comparison with the reference hypertension previously obtained (about 100 mm Hg) is recorded. In both cases, the results of the reduction in arterial pressure and heart rate are expressed as follows: […]” for “route.”

COc1ccc2[nH]c(S(=O)(=O)c3ccc(OCCCN(C)CCc4ccc(OC)c(OC)c4)cc3)c(C(C)C)c2c1 [Ex. 62, 2-{4-[3-(N-methyl N-3,4-dimethoxy-β-phenethylamino)propoxy]benzenesulfonyl} 3-isopropyl 5-methoxy indole hydrogen oxalate]
inhibition in vivo at 1 mg/kg ([1]; Canis lupus familiaris, intravenous, 1 mg/kg): ≥ 50%
% maximal contractional effect ([2]; 10^-7 M, 0.1 µM): 37,1%
% maximal contractional effect ([2]; 10^-8 M, 0.01 µM): 48,7%
% maximal contractional effect ([2]; 10^-9 M, 0.001 µM): 93,7%
% maximal contractional effect ([2]; 10^-10 M, 0.0001 µM): 90,3%
Anti-α effect ([3]; intravenous, 1 mg/kg): +++

2-isopropyl 8-methyl 1-{4-[3-(6,7-dimethoxy 1,2,3,4-tetrahydro N-isoquinolin-2-yl)propoxy]benzenesulfonyl}indolizine hydrogen oxalate [Ex. 2]
Anti-β effect ([1]; intravenous, 0,065 mg/kg): +++
Anti-α effect ([3]; intravenous, 0,065 mg/kg): +++

COc1ccc(CCN(C)CCCOc2ccc(S(=O)(=O)c3c(C(C)C)cn4ccccc34)cc2)cc1OC [C, reference compound]
Anti-β effect ([1]; intravenous, 0,1 mg/kg): +++
% maximal contractional effect ([2]; 10^-8 M, 0.01 µM): 40,1%
% maximal contractional effect ([2]; 10^-9 M, 0.001 µM): 81,7%
Anti-α effect ([3]; intravenous, 0,1 mg/kg): +++

COc1ccc(CCN(C)CCCOc2ccc(S(=O)(=O)c3c(C(C)C)n(C)c4cccc(C)c34)cc2)cc1OC [Ex. 65, 3-{4-[3-(N-methyl N-3,4-dimethoxy-β-phenethylamino)propoxy]benzenesulfonyl} 2-isopropyl 1,4-dimethyl indole hydrogen oxalate]
Anti-β effect ([1]; intravenous, 0,1 mg/kg): +++
% maximal contractional effect ([2]; 10^-7 M, 0.1 µM): 14,3%
% maximal contractional effect ([2]; 10^-8 M, 0.01 µM): 29,9%
% maximal contractional effect ([2]; 10^-9 M, 0.001 µM): 76,1%
% maximal contractional effect ([2]; 10^-10 M, 0.0001 µM): 83,5%
Anti-α effect ([3]; intravenous, 0,1 mg/kg): +++

COc1ccc2c(c1)c(C(C)C)c(S(=O)(=O)c1ccc(OCCCN(C)CCc3ccc(OC)c(OC)c3)cc1)n2C [Ex. 61, 2-{4-[3-(N-methyl N-3,4-dimethoxy-β-phenethylamino)propoxy]benzenesulfonyl} 3-isopropyl 5-methoxy 1-methyl indole hydrogen fumarate]
inhibition in vivo at 0.035 mg/kg ([1]; Canis lupus familiaris, intravenous, 0,035 mg/kg): ≥ 50%
% maximal contractional effect ([2]; 10^-7 M, 0.1 µM): 15,7%
% maximal contractional effect ([2]; 10^-8 M, 0.01 µM): 31,2%
% maximal contractional effect ([2]; 10^-9 M, 0.001 µM): 71,4%
% maximal contractional effect ([2]; 10^-10 M, 0.0001 µM): 89,5%
Anti-α effect ([3]; intravenous, 0,035 mg/kg): +++

COc1ccc(CCN(C)CCCOc2ccc(S(=O)(=O)c3c(C(C)C)c4cccc(C)c4n3C)cc2)cc1OC [Ex. 55, 2-{4-[3-(N-methyl N-3,4-dimethoxy-β-phenethylamino)propoxy]benzenesulfonyl} 3-isopropyl 1,7-dimethyl indole hydrogen oxalate]
Anti-β effect ([1]; intravenous, 0,07 mg/kg): +++
% maximal contractional effect ([2]; 10^-7 M, 0.1 µM): 45,8%
% maximal contractional effect ([2]; 10^-8 M, 0.01 µM): 56,4%
% maximal contractional effect ([2]; 10^-9 M, 0.001 µM): 79%
% maximal contractional effect ([2]; 10^-10 M, 0.0001 µM): 85,7%
Anti-α effect ([3]; intravenous, 0,07 mg/kg): +++

COc1ccc(CCN(C)CCCOc2ccc(S(=O)(=O)c3c(C(C)C)cn4cccc(C)c34)cc2)cc1OC [Ex. 15, 2-isopropyl 8-methyl 1-{4-[3-(N-methyl N-3,4-dimethoxy-β-phenethylamino)propoxy]benzenesulfonyl}indolizine hydrogen oxalate]
inhibition in vivo at 0.013 mg/kg ([1]; Canis lupus familiaris, intravenous, 0,013 mg/kg): < 50%
% maximal contractional effect ([2]; 10^-8 M, 0.01 µM): 11,1%
% maximal contractional effect ([2]; 10^-9 M, 0.001 µM): 41,0%
% maximal contractional effect ([2]; 10^-10 M, 0.0001 µM): 85,2%
Anti-α effect ([3]; intravenous, 0,013 mg/kg): ++ (for a reduction ≥50%)

CCCCN(CCCC)CCCOc1ccc(S(=O)(=O)c2c(C(C)C)n(C)c3cccc(C)c23)cc1.O=C(O)C(=O)O [Ex. 66, 3-{4-[3-(di-n-butylamino)propoxy]benzenesulfonyl} 2-isopropyl 1,4-dimethyl indole hydrogen oxalate]
Anti-β effect ([1]; intravenous, 0,05 mg/kg): +++
% maximal contractional effect ([2]; 10^-7 M, 0.1 µM): 7,1%
% maximal contractional effect ([2]; 10^-8 M, 0.01 µM): 37,1%
% maximal contractional effect ([2]; 10^-9 M, 0.001 µM): 83,1%
Anti-α effect ([3]; intravenous, 0,05 mg/kg): +++

COc1ccc(CCN(C)CCCOc2ccc(S(=O)(=O)c3c(C(C)C)nn4c(C)cccc34)cc2)cc1OC [Ex. 50, 3-{4-[3-(N-methyl N-3,4-dimethoxy-β-phenethylamino)propoxy]benzenesulfonyl} 2-isopropyl 7-methyl pyrazolo[1,5-a]pyridine hydrogen oxalate]
Anti-β effect ([1]; intravenous, 0,13 mg/kg): +++
% maximal contractional effect ([2]; 10^-8 M, 0.01 µM): 29,1%
% maximal contractional effect ([2]; 10^-9 M, 0.001 µM): 65,6%
% maximal contractional effect ([2]; 10^-10 M, 0.0001 µM): 86,3%
Anti-α effect ([3]; intravenous, 0,13 mg/kg): +++

CCCCc1oc2ccc(Br)cc2c1S(=O)(=O)c1ccc(OCCCN(C)CCc2ccc(OC)c(OC)c2)cc1 [Ex. 8, 5-bromo 2-n-butyl 3-{4[3-(N-methyl N-3,4-dimethoxy-β-phenethylamino)propoxy]benzenesulfonyl}benzofuran hydrogen oxalate]
Anti-β effect ([1]; intravenous, 1,5 mg/kg): +++
% maximal contractional effect ([2]; 10^-6 M, 1 µM): 61,5%
% maximal contractional effect ([2]; 10^-7 M, 0.1 µM): 79,4%
Anti-α effect ([3]; intravenous, 1,5 mg/kg): +++

COc1ccc(CCN(C)CCCOc2ccc(S(=O)(=O)c3c(C(C)C)c4ccccc4n3CCCN(C)CCc3ccc(OC)c(OC)c3)cc2)cc1OC [Ex. 10, 2-{4-[3-(N-methyl N-3,4-dimethoxy-β-phenethylamino)propoxy]benzenesulfonyl} 1-[3-(N-methyl N-3,4-dimethoxy-β-phenethylamino)propyl] 3-isopropyl indole dioxalate]
Anti-β effect ([1]; intravenous, 4,9 mg/kg): +++
% maximal contractional effect ([2]; 10^-7 M, 0.1 µM): 78,9%
% maximal contractional effect ([2]; 10^-8 M, 0.01 µM): 90,2%
Anti-α effect ([3]; intravenous, 4,9 mg/kg): +++

COc1ccc(CCN(C)CCCOc2ccc([S+]([O-])c3c(C(C)C)c4cc(Cl)ccc4n3C)cc2)cc1OC (stereo not drawn) [Ex. 56, (5-chloro 3-isopropyl 1-methylindo-2yl)4-[3-(N-methyl N-3,4-dimethoxy-β-phenethylamino)propoxy]phenyl sulfoxide hydrogen oxalate]
% maximal contractional effect ([2]; 10^-7 M, 0.1 µM): 19,8%
% maximal contractional effect ([2]; 10^-8 M, 0.01 µM): 61,3%
% maximal contractional effect ([2]; 10^-9 M, 0.001 µM): 78,6%
Anti-α effect ([3]; intravenous, 0,67 mg/kg): +++

COc1ccc(CCN(C)CCCOc2ccc(S(=O)(=O)c3c(C(C)C)n(CCN(C)C)c4ccccc34)cc2)cc1OC [Ex. 11, 3-{4-[3-(N-methyl N-3,4-dimethoxy-β-phenethylamino)propoxy]benzenesulfonyl} 1-dimethylaminoethyl 2-isopropyl indole dioxalate]
% maximal contractional effect ([2]; 10^-7 M, 0.1 µM): 66,7%
% maximal contractional effect ([2]; 10^-8 M, 0.01 µM): 85,9%
Anti-α effect ([3]; intravenous, 1,6 mg/kg): ++ (for a reduction ≥50%)
